Laboratory results published in the supplement of paper PMC10307832.

Tests used:
Test in all cases: relative viability (nuclei count vs DMSO), 5 days (fraction); higher = more cells survive
[1] = tested on: 201T
How it was run: (§1)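 Relative viability was taken as the ratio of nuclei in treated wells to nuclei in vehicle wells. Lung cancer cell lines in 1536-well plates received compounds by pin tool one day after seeding, either one drug alone or a fixed anchor-drug dose plus five library-drug doses (not always all listed) in √10 steps. Nuclei were counted on 4× images after 5 days of treatment, and values are medians of duplicate plates.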

[2] = tested on: BEN
How it was run: as §1

[3] = tested on: COR-L 105
How it was run: as §1

[4] = tested on: EMC-BAC-2
How it was run: as §1

[5] = tested on: H3255
How it was run: as §1

[6] = tested on: HARA
How it was run: as §1

[7] = tested on: HCC-78
How it was run: as §1

[8] = tested on: HOP-62
How it was run: as §1

[9] = tested on: LC-2-ad
How it was run: as §1

[10] = tested on: LOU-NH91
How it was run: as §1

[11] = tested on: LU99A
How it was run: as §1

[12] = tested on: LXF-289
How it was run: as §1

[13] = tested on: NCI-H1395
How it was run: as §1

[14] = tested on: NCI-H1563
How it was run: as §1

[15] = tested on: NCI-H1993
How it was run: as §1

[16] = tested on: NCI-H2087
How it was run: as §1

[17] = tested on: NCI-H2126
How it was run: as §1

[18] = tested on: NCI-H2170
How it was run: as §1

[19] = tested on: NCI-H650
How it was run: as §1

[20] = tested on: RERF-LC-KJ
How it was run: as §1

[21] = tested on: SK-MES-1
How it was run: as §1

[22] = tested on: UMC-11
How it was run: as §1

For `Nc1cccc2c1CN(C1CCC(=O)NC1=O)C2=O` (stereo not given) [Lenalidomide] + CS(=O)(=O)CCNCc1ccc(-c2ccc3ncnc(Nc4ccc(OCc5cccc(F)c5)c(Cl)c4)c3c2)o1 [Lapatinib] (partner 2 µM), the relative viability ([1]; first compound 0.253 µM) was 1.07, the relative viability ([1]; first compound 0.8 µM) was 0.815 and the relative viability ([1]; first compound 2.53 µM) was 1.02. The relative viability ([1]; first compound 8 µM) was 0.954, the relative viability ([2]; first compound 0.253 µM) was 0.898 and the relative viability ([2]; first compound 0.8 µM) was 0.587. It also gave a relative viability ([2]; first compound 2.53 µM) of 0.918, a relative viability ([2]; first compound 8 µM) of 0.489 and a relative viability ([3]; first compound 0.253 µM) of 0.386. For the same compound, the relative viability ([3]; first compound 0.8 µM) was 0.364, the relative viability ([3]; first compound 2.53 µM) was 0.343 and the relative viability ([3]; first compound 8 µM) was 0.33. The relative viability ([4]; first compound 0.253 µM) was 0.921, the relative viability ([4]; first compound 0.8 µM) was 0.825 and the relative viability ([4]; first compound 2.53 µM) was 0.905. For the same compound, the relative viability ([4]; first compound 8 µM) was 0.754, the relative viability ([5]; first compound 0.253 µM) was 0.237 and the relative viability ([5]; first compound 0.8 µM) was 0.191. The relative viability ([5]; first compound 2.53 µM) was 0.317, the relative viability ([5]; first compound 8 µM) was 0.227 and the relative viability ([6]; first compound 0.253 µM) was 0.775. For the same compound, the relative viability ([6]; first compound 0.8 µM) was 0.653, the relative viability ([6]; first compound 2.53 µM) was 0.8 and the relative viability ([6]; first compound 8 µM) was 0.571. It also gave a relative viability ([7]; first compound 0.253 µM) of 0.811, a relative viability ([7]; first compound 0.8 µM) of 0.367 and a relative viability ([7]; first compound 2.53 µM) of 0.245. It also gave a relative viability ([7]; first compound 8 µM) of 0.271, a relative viability ([8]; first compound 0.253 µM) of 1 and a relative viability ([8]; first compound 0.8 µM) of 0.578. It also gave a relative viability ([8]; first compound 2.53 µM) of 1.26, a relative viability ([8]; first compound 8 µM) of 0.924 and a relative viability ([9]; first compound 0.253 µM) of 0.941. It also gave a relative viability ([9]; first compound 0.8 µM) of 0.96, a relative viability ([9]; first compound 2.53 µM) of 1.05 and a relative viability ([9]; first compound 8 µM) of 1. It also gave a relative viability ([10]; first compound 0.253 µM) of 0.771, a relative viability ([10]; first compound 0.8 µM) of 0.675 and a relative viability ([10]; first compound 2.53 µM) of 0.758. For the same compound, the relative viability ([10]; first compound 8 µM) was 0.579, the relative viability ([11]; first compound 0.253 µM) was 0.922 and the relative viability ([11]; first compound 0.8 µM) was 0.919. For the same compound, the relative viability ([11]; first compound 2.53 µM) was 0.894, the relative viability ([11]; first compound 8 µM) was 0.56 and the relative viability ([12]; first compound 0.253 µM) was 0.928. The relative viability ([12]; first compound 0.8 µM) was 0.882, the relative viability ([12]; first compound 2.53 µM) was 0.991 and the relative viability ([12]; first compound 8 µM) was 0.957. For the same compound, the relative viability ([13]; first compound 0.253 µM) was 1.1, the relative viability ([13]; first compound 2.53 µM) was 0.948 and the relative viability ([13]; first compound 8 µM) was 0.845. It also gave a relative viability ([14]; first compound 0.253 µM) of 0.919, a relative viability ([14]; first compound 0.8 µM) of 0.852 and a relative viability ([14]; first compound 2.53 µM) of 0.979. The relative viability ([14]; first compound 8 µM) was 0.763, the relative viability ([15]; first compound 0.253 µM) was 0.894 and the relative viability ([15]; first compound 0.8 µM) was 0.831. The relative viability ([15]; first compound 2.53 µM) was 0.821, the relative viability ([15]; first compound 8 µM) was 0.722 and the relative viability ([16]; first compound 0.253 µM) was 1.01. The relative viability ([16]; first compound 0.8 µM) was 0.78, the relative viability ([16]; first compound 2.53 µM) was 1.07 and the relative viability ([16]; first compound 8 µM) was 1.09. For the same compound, the relative viability ([17]; first compound 0.253 µM) was 0.743, the relative viability ([17]; first compound 0.8 µM) was 0.537 and the relative viability ([17]; first compound 2.53 µM) was 0.733. It also gave a relative viability ([17]; first compound 8 µM) of 0.584, a relative viability ([18]; first compound 0.253 µM) of 0.26 and a relative viability ([18]; first compound 0.8 µM) of 0.293. For the same compound, the relative viability ([18]; first compound 2.53 µM) was 0.296, the relative viability ([18]; first compound 8 µM) was 0.247 and the relative viability ([19]; first compound 0.253 µM) was 1.04. The relative viability ([19]; first compound 2.53 µM) was 1.01, the relative viability ([19]; first compound 8 µM) was 0.804 and the relative viability ([20]; first compound 0.253 µM) was 0.86. It also gave a relative viability ([20]; first compound 0.8 µM) of 0.778, a relative viability ([20]; first compound 2.53 µM) of 0.904 and a relative viability ([20]; first compound 8 µM) of 0.757. For the same compound, the relative viability ([21]; first compound 0.253 µM) was 0.416, the relative viability ([21]; first compound 0.8 µM) was 0.397 and the relative viability ([21]; first compound 2.53 µM) was 0.536. The relative viability ([21]; first compound 8 µM) was 0.391, the relative viability ([22]; first compound 0.253 µM) was 1.1 and the relative viability ([22]; first compound 0.8 µM) was 0.803. The relative viability ([22]; first compound 2.53 µM) was 1.04 and the relative viability ([22]; first compound 8 µM) was 0.791.
`CN1CCN(CCOc2cc(OC3CCOCC3)c3c(Nc4c(Cl)ccc5c4OCO5)ncnc3c2)CC1` [Saracatinib] + CS(=O)(=O)N1CCN(Cc2cc3nc(-c4cccc5[nH]ncc45)nc(N4CCOCC4)c3s2)CC1 [Pictilisib] (partner 1 µM) was tested, and the relative viability ([1]; first compound 0.02 µM) was 0.702, the relative viability ([1]; first compound 0.2 µM) was 0.627 and the relative viability ([1]; first compound 0.6325 µM) was 0.603. It also gave a relative viability ([1]; first compound 2 µM) of 0.554, a relative viability ([2]; first compound 0.02 µM) of 0.57 and a relative viability ([2]; first compound 0.2 µM) of 0.56. It also gave a relative viability ([2]; first compound 0.6325 µM) of 0.573, a relative viability ([2]; first compound 2 µM) of 0.427 and a relative viability ([3]; first compound 0.02 µM) of 0.445. It also gave a relative viability ([3]; first compound 0.2 µM) of 0.331, a relative viability ([3]; first compound 0.6325 µM) of 0.361 and a relative viability ([3]; first compound 2 µM) of 0.244. The relative viability ([4]; first compound 0.02 µM) was 0.546, the relative viability ([4]; first compound 0.2 µM) was 0.507 and the relative viability ([4]; first compound 0.6325 µM) was 0.497. The relative viability ([4]; first compound 2 µM) was 0.34, the relative viability ([5]; first compound 0.02 µM) was 0.432 and the relative viability ([5]; first compound 0.2 µM) was 0.391. It also gave a relative viability ([5]; first compound 0.6325 µM) of 0.352, a relative viability ([5]; first compound 2 µM) of 0.156 and a relative viability ([6]; first compound 0.02 µM) of 0.37. The relative viability ([6]; first compound 0.6325 µM) was 0.374, the relative viability ([6]; first compound 2 µM) was 0.118 and the relative viability ([7]; first compound 0.02 µM) was 0.242. It also gave a relative viability ([7]; first compound 0.2 µM) of 0.154, a relative viability ([7]; first compound 0.6325 µM) of 0.178 and a relative viability ([7]; first compound 2 µM) of 0.21. It also gave a relative viability ([8]; first compound 0.02 µM) of 0.548, a relative viability ([8]; first compound 0.2 µM) of 0.685 and a relative viability ([8]; first compound 0.6325 µM) of 1.05. It also gave a relative viability ([8]; first compound 2 µM) of 0.605, a relative viability ([9]; first compound 0.02 µM) of 0.578 and a relative viability ([9]; first compound 0.6325 µM) of 0.443. It also gave a relative viability ([9]; first compound 2 µM) of 0.362, a relative viability ([10]; first compound 0.02 µM) of 0.535 and a relative viability ([10]; first compound 0.2 µM) of 0.442. The relative viability ([10]; first compound 0.6325 µM) was 0.502, the relative viability ([10]; first compound 2 µM) was 0.437 and the relative viability ([11]; first compound 0.02 µM) was 0.334. The relative viability ([11]; first compound 0.2 µM) was 0.259, the relative viability ([11]; first compound 0.6325 µM) was 0.309 and the relative viability ([11]; first compound 2 µM) was 0.299. The relative viability ([12]; first compound 0.02 µM) was 0.715, the relative viability ([12]; first compound 0.2 µM) was 0.731 and the relative viability ([12]; first compound 0.6325 µM) was 0.8. It also gave a relative viability ([12]; first compound 2 µM) of 0.472, a relative viability ([13]; first compound 0.02 µM) of 0.603 and a relative viability ([13]; first compound 0.2 µM) of 0.497. The relative viability ([13]; first compound 0.6325 µM) was 0.672, the relative viability ([13]; first compound 2 µM) was 0.528 and the relative viability ([14]; first compound 0.02 µM) was 0.618. The relative viability ([14]; first compound 0.2 µM) was 0.609, the relative viability ([14]; first compound 0.6325 µM) was 0.63 and the relative viability ([14]; first compound 2 µM) was 0.606. For the same compound, the relative viability ([15]; first compound 0.02 µM) was 0.655, the relative viability ([15]; first compound 0.2 µM) was 0.969 and the relative viability ([15]; first compound 2 µM) was 0.652. It also gave a relative viability ([16]; first compound 0.02 µM) of 0.963, a relative viability ([16]; first compound 0.2 µM) of 0.567 and a relative viability ([16]; first compound 0.6325 µM) of 1.06. It also gave a relative viability ([16]; first compound 2 µM) of 0.967, a relative viability ([17]; first compound 0.02 µM) of 0.475 and a relative viability ([17]; first compound 0.2 µM) of 0.498. The relative viability ([17]; first compound 0.6325 µM) was 0.529, the relative viability ([17]; first compound 2 µM) was 0.429 and the relative viability ([18]; first compound 0.02 µM) was 0.355. The relative viability ([18]; first compound 0.2 µM) was 0.233, the relative viability ([18]; first compound 0.6325 µM) was 0.234 and the relative viability ([18]; first compound 2 µM) was 0.208. The relative viability ([19]; first compound 0.02 µM) was 0.771, the relative viability ([19]; first compound 0.2 µM) was 0.837 and the relative viability ([19]; first compound 0.6325 µM) was 0.871. For the same compound, the relative viability ([19]; first compound 2 µM) was 0.86, the relative viability ([20]; first compound 0.02 µM) was 0.503 and the relative viability ([20]; first compound 0.2 µM) was 0.521. It also gave a relative viability ([20]; first compound 0.6325 µM) of 0.604, a relative viability ([20]; first compound 2 µM) of 0.362 and a relative viability ([21]; first compound 0.02 µM) of 0.375. It also gave a relative viability ([21]; first compound 0.2 µM) of 0.256, a relative viability ([21]; first compound 0.6325 µM) of 0.267 and a relative viability ([21]; first compound 2 µM) of 0.183. For the same compound, the relative viability ([22]; first compound 0.02 µM) was 0.691, the relative viability ([22]; first compound 0.6325 µM) was 0.836 and the relative viability ([22]; first compound 2 µM) was 0.679.
